Measurements published in US5554608A, “Inhibition of hair growth” (priority 1994, dated 1996).

Assays:
[1] = test system: PKC; assay: PKC activity assay in flank organ hair follicle homogenate (32P phosphorylation of acetylated-myelin basic protein); type: biochemical, Golden Syrian hamster
Method: PKC activity was assayed in hair follicles isolated from flank organs using a commercial assay kit obtained from GIBCO BRL (Gaithersburg, Md.). The assay is based on the phosphorylation (incorporation of ^32 -P into) of acetylated-myelin basic protein. After isolation, the flank organ hair follicles were washed in phosphate-buffered saline and homogenized in a buffer containing 20 mM Tris, pH 7.5, 0.5 mM EDTA, 0.5% Triton X-100, 10 mM β-mercaptoethanol, and 25 μg/each of the protease inhibitors aprotinin and leupeptin. The hair follicle homogenate was added to the PKC reaction mixture at a final concentration of 10-20 μg/assay. The assay also included buffer, H2 O, phospholipid. The assay was performed in the presence or absence of select PKC inhibitors. The reaction mixture volume was 50 μl, the ^32 P-ATP substrate was added in a volume of 10 μl. The reaction proceeded at 32° for 15 minutes, whereupon a 16.3 μL aliquot was removed from the reaction mixture and spotted onto a paper filter. Filters were washed twice in 1% phosphoric acid with gentle shaking for 5 minutes. Filters were then washed twice in H2 O and placed in scintillation vials. ^32 P-Incorporation, a measure of the enzyme activity, was determined using standard liquid scintillation techniques.

[2] = test system: flank organ hair growth; assay: Golden Syrian hamster assay (flank organ hair growth, topical); type: in vivo; conditions: for Hair Mass (mean ± SEM) Treated: treated flank organ; for % Inhibition (of hair growth): vs vehicle-treated side, mean ± SEM
Excerpt: Male intact Golden Syrian hamsters are considered acceptable models for human beard hair growth in that they display oval shaped flank organs, one on each side, each about 8 mm. in major diameter, which grow thick black and coarse hair similar to human beard hair. These organs produce hair in response to androgens in the hamster. To evaluate the effectiveness of a particular PKC inhibitor, the flank organs of each of a group of hamsters are depilated by applying a thioglycolate based chemical depilatory (Surgex). To one organ of each animal 10-25 μl. of vehicle alone once a day is applied, while to the other organ of each animal an equal amount of vehicle containing a PKC inhibitor is applied. After thirteen applications (one application per day for five days a week), the flank organs are shaved and the amount of recovered hair (hair mass) from each is weighed. Percent-reduction of hair growth is calculated by subtracting the hair mass (mg) value of the test compound treated side from the hair mass value of the vehicle treated side; the delta value obtained is then divided by the hair mass value of the vehicle treated side, and the resultant number is multiplied by 100.
The above-described assay will be referred to herein as the "Golden Syrian hamster" assay.

[3] = dose 7.5% in vehicle B, pH 7.5, thirteen applications
[4] = dose 10% in vehicle C, pH 5.5, thirteen applications
[5] = dose 10% in vehicle A, thirteen applications, pH differs per compound (4.0-8.5)

SMILES | Hair Mass (mean ± SEM) Treated [2, 5] | % Inhibition (of hair growth) [2, 5] [%] | other results
CC1(C)[C@@H](O)CC[C@]2(C)[C@H]3C(=O)C=C4[C@@H]5C[C@@](C)(C(=O)O)CC[C@]5(C)CC[C@@]4(C)[C@]3(C)CC[C@@H]12 [18β-Glycyrrhetinic acid] | – | – | inhibition of PKC activity ([1]; at 500 μM): 52%; Hair Mass (mean ± SEM) Treated [2, 3]: 1.07 ± .10 mg; % Inhibition (of hair growth) [2, 3]: 44 ± 6%
COc1cc(/C=C/C(=O)CC(=O)/C=C/c2ccc(O)c(OC)c2)ccc1O [Curcumin] | – | – | Hair Mass (mean ± SEM) Treated [2, 4]: 0.55 ± .11 mg; % Inhibition (of hair growth) [2, 4]: 68 ± 5%
CC1(C)[C@@H](O[C@H]2O[C@H](C(=O)O)[C@@H](O)[C@H](O)[C@H]2O[C@@H]2O[C@H](C(=O)O)[C@@H](O)[C@H](O)[C@H]2O)CC[C@]2(C)[C@H]3C(=O)C=C4[C@@H]5C[C@@](C)(C(=O)O)CC[C@]5(C)CC[C@@]4(C)[C@]3(C)CC[C@@H]12 [Glycyrrhetinic acid glycoside] | 0.94 ± .17 mg | 46 ± 10 | inhibition of PKC activity ([1]; at 200 μM): ~100%
CC1CNCCN1S(=O)(=O)c1cccc2cnccc12 (stereo not drawn) [H-7, 1(5-isoquinolinylsulfonyl)-2-methylpiperazine] | 0.81 ± .08 mg | 54 ± 3 | inhibition of PKC activity ([1]; at 200 μM): 86%
CN(C)CCCN1c2ccccc2CCc2ccccc21 [Imipramine] | 0.94 ± .18 mg | 38 ± 5 | –
CCCCCCCCCCCCCCCC(=O)OC[C@H](O)[C@H]1OC(=O)C(O)=C1O [L-Ascorbic acid 6-palmitate] | 1.48 ± .14 mg | 46 ± 5 | –
Cc1ccc(N(CC2=NCCN2)c2cccc(O)c2)cc1 [Phentolamine] | 1.61 ± .22 mg | 19 ± 9 | –
CSc1ccc2c(c1)N(CCC1CCCCN1C)c1ccccc1S2 (stereo not drawn) [Thioridazine] | 0.74 ± .07 mg | 68 ± 4 | –
CN1CCN(CCCN2c3ccccc3Sc3ccc(C(F)(F)F)cc32)CC1 [Trifluoperizine] | 1.03 ± .16 mg | 56 ± 6 | inhibition of PKC activity ([1]; at 500 μM): 42%
COc1ccc(CCN(C)CCCC(C#N)(c2ccc(OC)c(OC)c2)C(C)C)cc1OC (stereo not drawn) [Verapamil] | 0.43 ± .05 mg | 69 ± 5 | –
